Laboratory results: PubChem BioAssay AID463206 (Broad Institute, 2010)
Calls of active or inactive are those of the source.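 Rule for the calls: active = caspase luminescence falls with dose and the half-maximal concentration AC50 from the fitted curve is at or below a set limit; inconclusive = flat fit at 30 to 70% signal loss, or invalid fit; inactive = AC50 above the limit, or signal rises instead.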

These compounds were tested on INS-1E cytokine-induced caspase-3/7, Caspase-Glo luminescence, 48 h (assay: inhibitors of cytokine-induced caspase-3/7 activity, dose response, orthogonal assay for beta-cell apoptosis protection project, INS-1E rat cells, luminescence (AID 463206)).
For `O=C(N/N=C/c1ccc([N+](=O)[O-])s1)C(O)c1ccccc1` (stereo not given), the AC50 was > 26 µM (inactive). `Cc1cc2nc(-c3ccc[nH]c3=O)[nH]c2cc1C` was tested, and the AC50 was > 26 µM (inactive). With `O=C(OCn1ncc(Cl)c(Cl)c1=O)c1ccc(F)cc1` the AC50 was > 26 µM (inactive). For `O=c1cc(CSc2ccc(Cl)cc2)nc(-c2ccccn2)[nH]1`, the AC50 was > 26 µM (inactive). `CC(=O)Nc1ccc(Nc2c3ccccc3nc3ccccc23)cc1` showed an AC50 of 8.76 µM. For `Cc1cccnc1CCNCc1c(C(=O)N2C[C@@H](C)O[C@@H](C)C2)nc2ccc(Cl)cn12`, the AC50 was > 26 µM (inactive). For `COc1ccc(/C=C/C(=O)c2ccc([N+](=O)[O-])o2)cc1OC`, the AC50 was > 26 µM (inactive). In the case of `O=C(Nc1nc(-c2ccccn2)cs1)c1cccc(-n2cnnn2)c1`, the AC50 is reported as > 26 µM (inactive). `Cc1ccc(Oc2nc(-c3ccccn3)nc3ccccc23)cc1` was tested, and the AC50 was > 26 µM (inactive). `N/C(=N\NC(=O)c1sccc1OCc1ccc(Cl)cc1Cl)c1ccccn1` was tested, and the AC50 was > 26 µM (inactive). With `CC(C)(C)c1cc(C(=O)N/N=C/c2ccccc2O)n(-c2ccccc2)n1` the AC50 was > 26 µM (inactive). With `COc1ccc(/C=N/Nc2cc(C)nc3ccc(Br)cc23)cc1` the AC50 was > 26 µM (inactive). With `Cc1cc(C)n(Cc2ccc(NC(=O)c3ccc(COc4ccccc4Br)cc3)cc2)n1` the AC50 was > 26 µM (inactive). For `COc1ccc(C2/C=C\CN(C(=O)Nc3ccc(C(F)(F)F)cc3)CC(=O)N2Cc2ccc(F)cc2)cc1` (stereo not given), the AC50 was > 26 µM (inactive). With `O=C(c1ccco1)N1N=C(c2ccc(Br)cc2)CC1c1ccco1` (stereo not given) the AC50 was > 26 µM (inactive). In the case of `Cc1nc(N/N=C/c2ccccn2)sc1C`, the AC50 is reported as > 26 µM (inactive). In the case of `O=C(COC(=O)c1cn(-c2ccccc2)nc1-c1ccccc1)c1cccc([N+](=O)[O-])c1`, the AC50 is reported as > 26 µM (inactive). `CCOCCCNC(=O)c1c[nH]c2cc(OC)ccc2c1=O` was tested, and the AC50 was > 26 µM (inactive). In the case of `CCC(CC)C(=O)c1c[nH]c(C(=O)NCc2ccccn2)c1`, the AC50 is reported as > 26 µM (inactive). For `Cc1ccc(Nc2c(-c3ccccn3)nc3cc(C)ccn23)cc1`, the AC50 was > 26 µM (inactive). In the case of `COc1cccc(C(NC(C)=O)c2ccc3cccnc3c2O)c1` (stereo not given), the AC50 is reported as > 26 µM (inactive). With `O=C(N/N=C/c1c(O)ccc2ccccc12)c1[nH]ncc1Br` the AC50 was > 26 µM (inactive). In the case of `CCS(=O)(=O)c1ncc(Cl)c(C(=O)Nc2ccc(S(=O)(=O)N3CCCC(C)C3)cc2)n1` (stereo not given), the AC50 is reported as > 26 µM (inactive). With `Cc1[nH]n(-c2ccccc2)c(=O)c1/C=N/NC(=O)c1cccc(F)c1` the AC50 was > 26 µM (inactive). For `CCOC(=O)C(C)/C(C)=N/NC(=O)c1cc2ccccc2cc1O` (stereo not given), the AC50 was > 26 µM (inactive). In the case of `CCn1c(SCC(=O)Nc2cc(C)on2)nc2sc3c(c2c1=O)CCCC3`, the AC50 is reported as > 12 µM (inactive). `Cn1nc(-c2ccccn2)nc2c(=O)n(C)c(=O)nc1-2` was tested, and the AC50 was > 26 µM (inactive). With `Oc1ccc(CN2CCc3ccccc3C2)c2cccnc12` the AC50 was > 26 µM (inactive). In the case of `Cc1cc(N/N=C\c2ccc(Br)cc2)nc(-n2nc(C)cc2C)n1`, the AC50 is reported as > 26 µM (inactive). With `O=C(Nc1ccc(Cc2ccncc2)cc1)c1ccc([N+](=O)[O-])o1` the AC50 was > 26 µM (inactive). With `CC1CC(=O)c2c(cc3c(-c4c(O)cc(O)c5c(O)c6c(cc45)OC(C)CC6=O)c(O)cc(O)c3c2O)O1` (stereo not given) the AC50 was > 26 µM (inactive). For `Nc1ccccc1N=Cc1c(O)n(CCC2=CCCCC2)c(=O)[nH]c1=O`, the AC50 was > 26 µM (inactive). In the case of `CCCC(=O)NC(c1ccccc1Cl)c1ccc2cccnc2c1O` (stereo not given), the AC50 is reported as > 26 µM (inactive). `COc1ccc(/C=C/C(=O)NC(=S)Nc2ccccc2C(=O)NC2CCCCC2)cc1` was tested, and the AC50 was > 26 µM (inactive). With `O=C(Nc1cccnc1)c1ccc([N+](=O)[O-])s1` the AC50 was > 26 µM (inactive). With `CC(C)(C)n1nnnc1C(c1ccc(F)cc1)N(Cc1ccc(F)cc1)Cc1ccco1` (stereo not given) the AC50 was > 26 µM (inactive). With `COc1ccc(S(=O)(=O)Nc2ccc(O)c3ccccc23)cc1` the AC50 was > 26 µM (inactive). For `CCCCCc1ccc(OCCCC[n+]2ccccc2)c(CCCCC)c1`, the AC50 was > 26 µM (inactive). `COc1cccc(/C=N/NC(=O)c2cc3cc([N+](=O)[O-])ccc3s2)c1O` was tested, and the AC50 was > 26 µM (inactive). In the case of `O=C(CSc1nnc(Cn2nnc3ccccc32)o1)N(Cc1ccc(F)cc1)c1ccccc1`, the AC50 is reported as > 26 µM (inactive). In the case of `CC(=O)Oc1c(Cl)cc(N(C(C)=O)S(=O)(=O)c2ccccc2)c2ccccc12`, the AC50 is reported as > 26 µM (inactive). `COc1ccc(NS(=O)(=O)c2ccc(N3CCCCC3)c(N)c2)cc1` was tested, and the AC50 was > 26 µM (inactive). `Cc1c2ccncc2c(C)c2c1[nH]c1ccccc12` was tested, and the AC50 was 1.11 µM. For `Clc1ccc(CSc2ccc(-c3ccccn3)nn2)cc1`, the AC50 was > 26 µM (inactive). For `O=C(NCc1cccnc1)c1cc(-c2ccco2)on1`, the AC50 was > 26 µM (inactive). For `c1ccc2c(CN3CCCCCCC3)c[nH]c2c1`, the AC50 was > 26 µM (inactive). With `O=C(Nc1cccc([N+](=O)[O-])c1)c1cc2ccccc2cc1O` the AC50 was > 26 µM (inactive). For `CC(C)(C)c1ccc(C(O)CCCN2CCC(C(O)(c3ccccc3)c3ccccc3)CC2)cc1` (stereo not given), the AC50 was > 26 µM (inactive). With `C=C(C)C(=O)N1CC2(CC(c3cccc(NC(=O)COc4ccc(Cl)cc4)c3)=NO2)C[C@@H]1C(N)=O` (stereo not given in full) the AC50 was > 26 µM (inactive). For `FC(F)(F)c1ccccc1NC(=S)N1CCc2ccccc2C1`, the AC50 was > 26 µM (inactive). `CCCCCCSc1cc(-c2nc3ccc(C)cn3c2NCc2ccccc2)ccc1OC` was tested, and the AC50 was > 26 µM (inactive). For `Cc1nc2c3cc(F)ccc3n(Cc3ccccc3)c2s1`, the AC50 was > 26 µM (inactive). In the case of `Cc1ccccc1OCCCCn1cnc2ccccc21`, the AC50 is reported as > 12 µM (inactive). With `COc1cc([N+](=O)[O-])cc(/C=N/NC(=O)c2cc(-c3ccccc3)nc3ccccc23)c1O` the AC50 was > 26 µM (inactive). `O=C(Nc1nc2c(F)cc(F)cc2s1)c1ccccn1` was tested, and the AC50 was > 26 µM (inactive). For `COc1cccc(/C=N/NC(=O)c2ccoc2C)c1O`, the AC50 was > 26 µM (inactive). For `O=C(Nc1ccc(F)cc1)c1cccnc1`, the AC50 was > 26 µM (inactive). With `C(=N\Nc1nncc2ccccc12)/c1ccccn1` the AC50 was > 26 µM (inactive). In the case of `CCCCCCCCn1c(=O)c(C(=O)OC)c(N)c2ccccc21`, the AC50 is reported as > 26 µM (inactive). In the case of `COc1ccc2cc1Oc1ccc(cc1)C[C@H]1c3c(cc(OC)c4c3Oc3c(ccc5c3[C@H](C2)N(C)CC5)O4)CCN1C`, the AC50 is reported as > 26 µM (inactive). `Clc1ccc(-c2cc(-c3nnc4n3CCCCC4)c3ccccc3n2)cc1` was tested, and the AC50 was > 26 µM (inactive). `CCCCc1ccc(N/C(N)=N/c2nc(C)cc(C)n2)cc1` was tested, and the AC50 was > 26 µM (inactive). With `CCC1(OC(=O)CN)C(=O)OCc2c1cc1n(c2=O)Cc2cc3ccccc3nc2-1` (stereo not given) the AC50 was 0.33 µM. With `CCOc1ccc(-n2c(O)c(/C=N/Nc3nc(C)cc(C)n3)c3ccccc3c2=O)cc1` the AC50 was > 26 µM (inactive). In the case of `COC(=O)[C@@H](Cc1ccccc1)N(Cc1ccccc1)S(=O)(=O)N(Cc1ccccc1)[C@H](Cc1ccccc1)C(=O)OC`, the AC50 is reported as > 26 µM (inactive). For `CCOC(=O)C1=C(CCc2ccccc2)NC(=O)NC1c1ccc2ccccc2c1` (stereo not given), the AC50 was > 26 µM (inactive). With `COc1cccc(C(=O)N/N=C(/c2ccccc2)c2ccccn2)c1` the AC50 was > 26 µM (inactive). For `Cc1cccc(C(=O)Nc2ccc(C(=O)/C=C/c3cccnc3)cc2)c1`, the AC50 was > 26 µM (inactive). For `O=C(Nc1cccc(S(=O)(=O)Nc2ccc(Cl)cc2)c1)c1ccc(Cl)nc1`, the AC50 was > 26 µM (inactive). `O=C(Nc1cccc(C(F)(F)F)c1)Nc1ccc(N2CCCC2)c(S(=O)(=O)Nc2ccccc2Cl)c1` was tested, and the AC50 was > 26 µM (inactive).
